{"source": "ChEMBL document CHEMBL1154782", "about": "“Discovery of Trp-His and His-Arg analogues as new structural classes of short antimicrobial peptides” (J Med Chem, 2009)", "key": {"[1]": {"tested_on": "Staphylococcus aureus", "experiment": "Antibacterial activity against methicillin-resistant Staphylococcus aureus DSM 50128509 after 15 to 18 hrs under aerobic condition by modified broth microdilution method", "format": "functional"}, "[2]": {"tested_on": "Staphylococcus aureus", "experiment": "Antibacterial activity against methicillin-resistant Staphylococcus aureus DSM 50128509", "format": "functional, organism-based"}, "[3]": {"tested_on": "Staphylococcus epidermidis", "experiment": "Antibacterial activity against methicillin-resistant Staphylococcus epidermidis DSM 50160384 after 15 to 18 hrs under aerobic condition by modified broth microdilution method", "format": "functional"}, "[4]": {"tested_on": "Staphylococcus epidermidis", "experiment": "Antibacterial activity against methicillin-resistant Staphylococcus epidermidis DSM 50160384", "format": "functional, organism-based"}, "[5]": {"tested_on": "Escherichia coli", "experiment": "Antibacterial activity against Escherichia coli ATCC 35218 after 15 to 18 hrs under aerobic condition by modified broth microdilution method", "format": "functional"}, "[6]": {"tested_on": "Escherichia coli", "experiment": "Antibacterial activity against Escherichia coli ATCC 35218", "format": "functional, organism-based"}, "[7]": {"tested_on": "Klebsiella pneumoniae", "experiment": "Antibacterial activity against Klebsiella pneumoniae ATCC 700603 after 15 to 18 hrs under aerobic condition by modified broth microdilution method", "format": "functional"}, "[8]": {"tested_on": "Klebsiella pneumoniae", "experiment": "Antibacterial activity against Klebsiella pneumoniae ATCC 700603", "format": "functional, organism-based"}, "[9]": {"tested_on": "Pseudomonas aeruginosa", "experiment": "Antibacterial activity against Pseudomonas aeruginosa ATCC 9027 after 15 to 18 hrs under aerobic condition by modified broth microdilution method", "format": "functional"}, "[10]": {"tested_on": "Pseudomonas aeruginosa", "experiment": "Antibacterial activity against Pseudomonas aeruginosa ATCC 9027", "format": "functional, organism-based"}, "[11]": {"tested_on": "Candida albicans", "experiment": "Antifungal activity against Candida albicans ATCC 10231 after 15 to 18 hrs under aerobic condition by modified broth microdilution method", "format": "functional"}, "[12]": {"tested_on": "Candida albicans", "experiment": "Antifungal activity against Candida albicans ATCC 10231", "format": "functional, organism-based"}, "[13]": {"tested_on": "L929", "experiment": "Cytotoxicity against mouse L929 cells up to 200 ug/mL after 5 days by MTT assay", "format": "cell-based", "settings": "l929, 120 h"}}, "data": [{"compound": "COC(=O)[C@H](CCCNC(=N)N)NC(=O)[C@H](Cc1c[nH]c(C23CC4CC(CC(C4)C2)C3)n1)NC(=O)OC(C)(C)C", "values": [{"measurement": "MIC", "setting": "[1]", "value": 50, "unit": "µg/mL"}, {"measurement": "IC50", "setting": "[2]", "value": 9.77, "unit": "µg/mL"}, {"measurement": "MIC", "setting": "[3]", "value": 50, "unit": "µg/mL"}, {"measurement": "IC50", "setting": "[4]", "value": 6.87, "unit": "µg/mL"}, {"measurement": "MIC", "setting": "[5]", "value": 100, "unit": "µg/mL"}, {"measurement": "IC50", "setting": "[6]", "value": 8.33, "unit": "µg/mL"}, {"measurement": "MIC", "setting": "[7]", "value": 200, "unit": "µg/mL"}, {"measurement": "IC50", "setting": "[8]", "value": 31.5, "unit": "µg/mL"}, {"measurement": "MIC", "setting": "[9]", "value": 100, "unit": "µg/mL"}, {"measurement": "IC50", "setting": "[10]", "value": 25.7, "unit": "µg/mL"}, {"measurement": "MIC", "setting": "[11]", "value": 200, "unit": "µg/mL"}, {"measurement": "IC50", "setting": "[12]", "value": 16.1, "unit": "µg/mL"}, {"measurement": "Activity", "setting": "[13]", "value": "Non-toxic"}]}]}
